Reference: US12551537B2, “Methods and compositions for the treatment and prevention of type 1 diabetes” (Dr. Mary Morris & Associates, LLC, priority 2019, dated 2026)

Columns and labels:
[1] = tested on: non-obese diabetic (NOD) mice; assay: Onset of hyperglycemia / Type 1 diabetes in NOD mice with sublingual treatment; type: in vivo, mouse; details: for Median Survival (time to Type 1 diabetes onset): female NOD mice, sublingual 87 μg once per day, diabetic = three consecutive blood glucose readings above 300 mg/dL, control 21 weeks; for Gehan-Breslow-Wilcoxon test: Are the survival curves significantly different? / Log-rank (Mantel-Cox) test: Are the survival curves significantly different?: vs control
Experimental: Sublingual formulation. A commercial high dose Humulin® solution (Humulin® R U-500) containing 500 units of insulin per mL is mixed with an additional equal volume (1:1 (vol:vol)) 100% glycerin. Each dose contains 10 μL of the Humulin®-glycerin solution, which contains 2.5 units (approximately 87 micrograms) of insulin in a solution having a final concentration of 52 vol. % glycerin.
NOD mice. Non-obese diabetic (NOD) mice, as described by Makino (Adv. Immunol. 51:285-322 (1992)), are used in the studies described herein. NOD mice provide an animal model for the spontaneous development of Type 1 diabetes. NOD mice develop insulitis as a result of leukocyte infiltration into the pancreatic islet, which in turn leads to the destruction of pancreatic islets and a Type 1 diabetic phenotype.
Five-week old female NOD mice were randomly assigned to three groups: (1) control group (1:1 glycerin/phosphate buffered saline (PBS)); (2) insulin-related peptide treatment (Humulin®) started at six weeks of age; or (3) insulin-related peptide treatment (Humulin®) started at ten weeks of age. Mice in the treatment groups (2) and (3) were sublingually administered 87 μg of Humulin® (10 μL of solution) once per day up to 30 weeks of age. Blood glucose measurements were taken once per week up to 20 weeks of age, and then twice per week thereafter. Mice were classified as diabetic after three consecutive blood glucose readings above 300 mg/dL (hyperglycemic).

serum C-peptide = assay: Serum C-peptide levels in NOD mice (mouse C-peptide ELISA); type: in vivo; details: sublingual 87 μg once per day up to 30 weeks of age, compared to untreated control NOD mice
Experimental: Serum C-peptide assay. The mouse C-peptide ELISA (ALPCO), which quantifies C-peptide protein products of mouse I and mouse II proinsulin genes, is used. Briefly, serum is collected by inserting a needle into the submandibular vein and collecting ˜0.2 mL of blood. The blood is centrifuged for 30 minutes at 17,000 rpm in a refrigerated centrifuge, and serum is collected and stored −80° C.
Five-week old female NOD mice are randomly assigned to three groups as described in Example 1: (1) control group (oil only); (2) insulin-related peptide treatment (Humulin®) started at six weeks of age; or (3) insulin-related peptide treatment (Humulin®) started at ten weeks of age. Mice in the treatment groups (2) and (3) are sublingually administered 87 μg of Humulin® once per day up to 30 weeks of age. Baseline C-peptide measurements are taken from serum drawn at week 6. Thereafter, C-peptide measurements are taken from serum drawn 1 time per 2 weeks beginning at week 20 up to 30 weeks of age.

[2] = tested on: islet cell autoantibody levels; assay: Autoantibody titer in NOD mice (ELISA); type: in vivo, mouse; details: sublingual 87 μg once per day up to 30 weeks of age, compared to untreated controls
Source text: Autoantibody titer assay. Commercially available ELISA assays are employed for detecting the presence of anti-insulin antibodies in serum samples collected from subjects.
Five-week old female NOD mice are randomly assigned to three groups as described in Example 1: (1) control group (oil only); (2) insulin-related peptide treatment (Humulin®) started at six weeks of age; or (3) insulin-related peptide treatment (Humulin®) started at ten weeks of age. Mice in the treatment groups (2) and (3) are sublingually administered 87 μg of humulin once per day up to 30 weeks of age. The subjects are assessed for baseline levels of autoantibodies at week 6. Thereafter, autoantibody titer measurements are taken once every other week beginning at week 15 up to 30 weeks of age.

[3] = FIG. 1A, treatment group 2, sublingual, started at six weeks of age, compared to control group
[4] = FIG. 1A, treatment started at 6 weeks of age
[5] = FIG. 1B, treatment started at 10 weeks of age

## Humulin: commercial recombinant human insulin solution (Humulin R U-500, 500 units/mL) mixed 1:1 with 100% glycerin for sublingual dosing
[1]; FIG. 1A, started at 6 weeks of age up to 30 weeks
  Median Survival (time to Type 1 diabetes onset): 27 weeks
[1]; [3]
  incidence (% T1D Onset) of Type 1 diabetes: significantly reduced
  onset time (weeks) of Type 1 diabetes: significantly reduced
[1]; [4]
  Ratio of median survival (control vs Humulin): 0.778
  Reciprocal of ratio of median survival: 1.29
  Gehan-Breslow-Wilcoxon test: Are the survival curves significantly different?: Yes
  Log-rank (Mantel-Cox) test: Are the survival curves significantly different?: Yes
[1]; FIG. 1B, started at 10 weeks of age up to 30 weeks
  Median Survival (time to Type 1 diabetes onset): 24 weeks
[1]; [5]
  Ratio of median survival (control vs Humulin): 0.8750
  Reciprocal of ratio of median survival: 1.14
  Gehan-Breslow-Wilcoxon test: Are the survival curves significantly different?: No
  Log-rank (Mantel-Cox) test: Are the survival curves significantly different?: No
Serum C-peptide
  serum C-peptide levels: maintenance or enhanced serum C-peptide levels
[2]
  antigenic response (e.g., islet cell autoantibody levels): attenuated antigenic response
